Test: Penetration study, Bronaugh flow-through diffusion cell system (permeability coefficient Kp)
Settings: 0.5 percent ketoprofen in the presence of vitamin E

## CC(C(=O)O)c1cccc(C(=O)c2ccccc2)c1 (stereo not shown) [ketoprofen]
  penetration rate: greater than that of 1.0 percent ketoprofen without vitamin E
